From BigSolDB 2.1

O=[N+]([O-])c1cn[nH]c1[N+](=O)[O-]
solubility (mole fraction)
Conditions | 298.15 K | 303.15 K | 308.15 K | 313.15 K | 318.15 K | 323.15 K | 328.15 K | 333.15 K | 338.15 K
in anisole | 0.043 | 0.058 | 0.0778 | 0.103 | 0.138 | 0.181 | 0.237 | 0.313 | 0.411
in benzene | 0.00171 | 0.00211 | 0.00264 | 0.00317 | 0.00389 | 0.00482 | 0.00585 | 0.00742 | 0.00936
in chlorobenzene | 0.0012 | 0.00147 | 0.0018 | 0.00218 | 0.00266 | 0.00328 | 0.00402 | 0.00494 | 0.00609
in isopropanol | 0.388 | 0.413 | 0.441 | 0.472 | 0.509 | 0.547 | 0.588 | 0.642 | 0.7
in n-butanol | 0.318 | 0.348 | 0.387 | 0.411 | 0.444 | 0.489 | 0.528 | 0.586 | 0.648
in toluene | 0.00201 | 0.0024 | 0.00291 | 0.00345 | 0.00411 | 0.00499 | 0.00601 | 0.00725 | 0.00877
